Test results reported in patent publication US20240315993A1, “ANTIPARASITIC COMPOUNDS” (Intervet Inc., priority 2021, published 2024).

Assays:
[1] = test system: bed bugs (Cimex lectularius); assay: Guinea pig - efficacy against bed bug; format: in vivo; settings: for effective to control bed bugs: 5 mg/kg
Procedure: (§1) Guinea pigs were locally co-infested (using an infestation device on a shaved skin area) with juvenile soft ticks (Ornithodoros moubata) and bed bugs (Cimex lectularius) before the treatment day (Day 0) to provide a baseline-negative control value. Guinea pigs were treated orally (by gavage) or subcutaneously at a dose of 5 mg/kg bodyweight of a test compound in a formulation of 10% DMF/Emulsifier+90% Aqua ad injectabilia.
(§2) Repeated local infestations with both parasites were performed at different time points after treatment. Within approximately 45 min after each infestation ten engorged ticks and ten engorged bed bugs were • collected and the percentage of dead and damaged parasites per species were • assessed approximately 24 hours following collection. The efficacy was • calculated as % of inhibition ‘killed+damaged’ parasites in a treated group in comparison to the baseline-negative control (using a modified Schneider Orelli's formula).
(§3) Results: Activity of the test compounds at different evaluation time-points (≥80% inhibition were found active): […]

[2] = test system: juvenile soft ticks (Ornithodoros moubata); assay: Guinea pig - efficacy against argaside tick; format: in vivo; settings: for effective to control ticks: 5 mg/kg
Procedure: as §1, §2, §3

[3] = 5 mg/kg subcutaneous, after 7 days
[4] = 5 mg/kg subcutaneous, after 10 days
[5] = 5 mg/kg subcutaneous, after 14 days
[6] = 5 mg/kg subcutaneous, after 17 days
[7] = 5 mg/kg subcutaneous, after 21 days
[8] = at least until Day 10, both administration routes (oral, subcutaneous)
[9] = 5 mg/kg subcutaneous, after 24 days
[10] = 5 mg/kg subcutaneous, after 28 days
[11] = 5 mg/kg subcutaneous, after 31 days
[12] = 5 mg/kg subcutaneous, after 35 days
[13] = for at least one week, both administration routes

SMILES: O=C(Nc1ncc(F)cc1F)c1cc(NC(=O)C2C(c3cc(Cl)c(F)c(Cl)c3)C2(Cl)Cl)ccc1Cl (stereo not drawn) [Compound 469]
- activity against bed bugs (≥80% inhibition, killed+damaged) ([1]; 5 mg/kg oral, Day 0): immediate activity
- activity against bed bugs (≥80% inhibition, killed+damaged) ([1]; 5 mg/kg oral, after 7 days): activity
- activity against bed bugs (≥80% inhibition, killed+damaged) ([1]; 5 mg/kg oral, after 10 days): activity
- activity against bed bugs (≥80% inhibition, killed+damaged) ([1]; 5 mg/kg subcutaneous, Day 0): immediate activity
- activity against bed bugs (≥80% inhibition, killed+damaged) [1, 3]: activity
- activity against bed bugs (≥80% inhibition, killed+damaged) [1, 4]: activity
- activity against bed bugs (≥80% inhibition, killed+damaged) [1, 5]: activity
- activity against bed bugs (≥80% inhibition, killed+damaged) [1, 6]: activity
- activity against bed bugs (≥80% inhibition, killed+damaged) [1, 7]: activity
- effective to control bed bugs [1, 8]: 100%
- activity against tick nymphs (≥80% inhibition, killed+damaged) ([2]; 5 mg/kg oral, Day 0): immediate activity
- activity against tick nymphs (≥80% inhibition, killed+damaged) ([2]; 5 mg/kg oral, after 7 days): activity
- activity against tick nymphs (≥80% inhibition, killed+damaged) ([2]; 5 mg/kg oral, after 10 days): activity
- activity against tick nymphs (≥80% inhibition, killed+damaged) ([2]; 5 mg/kg subcutaneous, Day 0): immediate activity
- activity against tick nymphs (≥80% inhibition, killed+damaged) [2, 3]: activity
- activity against tick nymphs (≥80% inhibition, killed+damaged) [2, 4]: activity
- activity against tick nymphs (≥80% inhibition, killed+damaged) [2, 5]: activity
- activity against tick nymphs (≥80% inhibition, killed+damaged) [2, 6]: activity
- effective to control ticks [2, 8]: 100%

SMILES: O=C(Nc1ncc(F)cc1F)c1cc(NC(=O)C2C(c3cc(Cl)c(Cl)c(Cl)c3)C2(Cl)Cl)ccc1Cl (stereo not drawn) [Compound 470]
- activity against bed bugs (≥80% inhibition, killed+damaged) ([1]; 5 mg/kg oral, Day 0): immediate activity
- activity against bed bugs (≥80% inhibition, killed+damaged) ([1]; 5 mg/kg oral, after 7 days): activity
- activity against bed bugs (≥80% inhibition, killed+damaged) ([1]; 5 mg/kg oral, after 10 days): activity
- activity against bed bugs (≥80% inhibition, killed+damaged) ([1]; 5 mg/kg oral, after 14 days): activity
- activity against bed bugs (≥80% inhibition, killed+damaged) ([1]; 5 mg/kg oral, after 17 days): activity
- activity against bed bugs (≥80% inhibition, killed+damaged) ([1]; 5 mg/kg oral, after 21 days): activity
- activity against bed bugs (≥80% inhibition, killed+damaged) ([1]; 5 mg/kg oral, after 24 days): activity
- activity against bed bugs (≥80% inhibition, killed+damaged) ([1]; 5 mg/kg oral, after 28 days): activity
- activity against bed bugs (≥80% inhibition, killed+damaged) ([1]; 5 mg/kg subcutaneous, Day 0): immediate activity
- activity against bed bugs (≥80% inhibition, killed+damaged) [1, 3]: activity
- activity against bed bugs (≥80% inhibition, killed+damaged) [1, 4]: activity
- activity against bed bugs (≥80% inhibition, killed+damaged) [1, 5]: activity
- activity against bed bugs (≥80% inhibition, killed+damaged) [1, 6]: activity
- activity against bed bugs (≥80% inhibition, killed+damaged) [1, 7]: activity
- activity against bed bugs (≥80% inhibition, killed+damaged) [1, 9]: activity
- activity against bed bugs (≥80% inhibition, killed+damaged) [1, 10]: activity
- activity against bed bugs (≥80% inhibition, killed+damaged) [1, 11]: activity
- activity against bed bugs (≥80% inhibition, killed+damaged) [1, 12]: activity
- effective to control bed bugs [1, 13]: 100%
- activity against tick nymphs (≥80% inhibition, killed+damaged) ([2]; 5 mg/kg oral, Day 0): immediate activity
- activity against tick nymphs (≥80% inhibition, killed+damaged) ([2]; 5 mg/kg oral, after 7 days): activity
- activity against tick nymphs (≥80% inhibition, killed+damaged) ([2]; 5 mg/kg oral, after 10 days): activity
- activity against tick nymphs (≥80% inhibition, killed+damaged) ([2]; 5 mg/kg oral, after 14 days): activity
- activity against tick nymphs (≥80% inhibition, killed+damaged) ([2]; 5 mg/kg oral, after 17 days): activity
- activity against tick nymphs (≥80% inhibition, killed+damaged) ([2]; 5 mg/kg subcutaneous, Day 0): immediate activity
- activity against tick nymphs (≥80% inhibition, killed+damaged) [2, 3]: activity
- activity against tick nymphs (≥80% inhibition, killed+damaged) [2, 4]: activity
- activity against tick nymphs (≥80% inhibition, killed+damaged) [2, 5]: activity
- activity against tick nymphs (≥80% inhibition, killed+damaged) [2, 6]: activity
- activity against tick nymphs (≥80% inhibition, killed+damaged) [2, 7]: activity
- activity against tick nymphs (≥80% inhibition, killed+damaged) [2, 9]: activity
- activity against tick nymphs (≥80% inhibition, killed+damaged) [2, 10]: activity
- activity against tick nymphs (≥80% inhibition, killed+damaged) [2, 11]: activity
- effective to control ticks [2, 13]: 100%

SMILES: O=C(Nc1ncc(F)cc1F)c1cc(NC(=O)C2C(c3cc(C(F)(F)F)cc(C(F)(F)F)c3)C2(Cl)Cl)ccc1Cl (stereo not drawn) [Compound 471]
- activity against bed bugs (≥80% inhibition, killed+damaged) ([1]; 5 mg/kg oral, Day 0): immediate activity
- activity against bed bugs (≥80% inhibition, killed+damaged) ([1]; 5 mg/kg oral, after 7 days): activity
- activity against bed bugs (≥80% inhibition, killed+damaged) ([1]; 5 mg/kg oral, after 10 days): activity
- activity against bed bugs (≥80% inhibition, killed+damaged) ([1]; 5 mg/kg oral, after 14 days): activity
- activity against bed bugs (≥80% inhibition, killed+damaged) ([1]; 5 mg/kg oral, after 17 days): activity
- activity against bed bugs (≥80% inhibition, killed+damaged) ([1]; 5 mg/kg oral, after 21 days): activity
- activity against bed bugs (≥80% inhibition, killed+damaged) ([1]; 5 mg/kg oral, after 24 days): activity
- activity against bed bugs (≥80% inhibition, killed+damaged) ([1]; 5 mg/kg oral, after 28 days): activity
- activity against bed bugs (≥80% inhibition, killed+damaged) ([1]; 5 mg/kg oral, after 31 days): activity
- activity against bed bugs (≥80% inhibition, killed+damaged) ([1]; 5 mg/kg oral, after 35 days): activity
- activity against bed bugs (≥80% inhibition, killed+damaged) ([1]; 5 mg/kg subcutaneous, Day 0): immediate activity
- activity against bed bugs (≥80% inhibition, killed+damaged) [1, 3]: activity
- activity against bed bugs (≥80% inhibition, killed+damaged) [1, 4]: activity
- activity against bed bugs (≥80% inhibition, killed+damaged) [1, 5]: activity
- activity against bed bugs (≥80% inhibition, killed+damaged) [1, 6]: activity
- activity against bed bugs (≥80% inhibition, killed+damaged) [1, 7]: activity
- activity against bed bugs (≥80% inhibition, killed+damaged) [1, 9]: activity
- activity against bed bugs (≥80% inhibition, killed+damaged) [1, 10]: activity
- activity against bed bugs (≥80% inhibition, killed+damaged) [1, 11]: activity
- activity against bed bugs (≥80% inhibition, killed+damaged) [1, 12]: activity
- effective to control bed bugs [1, 13]: 100%
- activity against tick nymphs (≥80% inhibition, killed+damaged) ([2]; 5 mg/kg oral, Day 0): immediate activity
- activity against tick nymphs (≥80% inhibition, killed+damaged) ([2]; 5 mg/kg oral, after 7 days): activity
- activity against tick nymphs (≥80% inhibition, killed+damaged) ([2]; 5 mg/kg oral, after 10 days): activity
- activity against tick nymphs (≥80% inhibition, killed+damaged) ([2]; 5 mg/kg oral, after 14 days): activity
- activity against tick nymphs (≥80% inhibition, killed+damaged) ([2]; 5 mg/kg oral, after 17 days): activity
- activity against tick nymphs (≥80% inhibition, killed+damaged) ([2]; 5 mg/kg oral, after 21 days): activity
- activity against tick nymphs (≥80% inhibition, killed+damaged) ([2]; 5 mg/kg oral, after 24 days): activity
- activity against tick nymphs (≥80% inhibition, killed+damaged) ([2]; 5 mg/kg oral, after 28 days): activity
- activity against tick nymphs (≥80% inhibition, killed+damaged) ([2]; 5 mg/kg oral, after 31 days): activity
- activity against tick nymphs (≥80% inhibition, killed+damaged) ([2]; 5 mg/kg oral, after 35 days): activity
- activity against tick nymphs (≥80% inhibition, killed+damaged) ([2]; 5 mg/kg subcutaneous, Day 0): immediate activity
- activity against tick nymphs (≥80% inhibition, killed+damaged) [2, 3]: activity
- activity against tick nymphs (≥80% inhibition, killed+damaged) [2, 4]: activity
- activity against tick nymphs (≥80% inhibition, killed+damaged) [2, 5]: activity
- activity against tick nymphs (≥80% inhibition, killed+damaged) [2, 6]: activity
- activity against tick nymphs (≥80% inhibition, killed+damaged) [2, 7]: activity
- activity against tick nymphs (≥80% inhibition, killed+damaged) [2, 9]: activity
- activity against tick nymphs (≥80% inhibition, killed+damaged) [2, 10]: activity
- activity against tick nymphs (≥80% inhibition, killed+damaged) [2, 11]: activity
- activity against tick nymphs (≥80% inhibition, killed+damaged) [2, 12]: activity
- effective to control ticks [2, 13]: 100%

SMILES: O=C(Nc1ccc(F)cc1F)c1cc(NC(=O)C2C(c3cc(C(F)(F)F)cc(C(F)(F)F)c3)C2(Cl)Cl)ccc1Cl (stereo not drawn) [Compound 472]
- activity against bed bugs (≥80% inhibition, killed+damaged) ([1]; 5 mg/kg oral, Day 0): immediate activity
- activity against bed bugs (≥80% inhibition, killed+damaged) ([1]; 5 mg/kg subcutaneous, Day 0): immediate activity
- activity against tick nymphs (≥80% inhibition, killed+damaged) ([2]; 5 mg/kg oral, Day 0): immediate activity
- activity against tick nymphs (≥80% inhibition, killed+damaged) ([2]; 5 mg/kg subcutaneous, Day 0): immediate activity
